Experimental data reported in the supplement of paper PMC4862054.
“And” between values parts separate entries of the source, which are not always exact repeats. Identical values can stand only once.

Experiments:
Conditions in all cases: incubation time: 72 h
[1] = tested on: DU-4475; assay: normalised response (% of control), CellTiter-Glo; higher = more viable cells (100 = DMSO, 0 = benzethonium chloride kill control)
Summary of the method: (§1)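 The table gives the normalised signal for a single concentration in each entry. Breast cancer cell lines were seeded (20 µl suspension) into 384-well plates holding compound at 5 concentrations in 10-fold steps over a compound-specific 10,000-fold range and incubated 72 h, then read for CellTox Green fluorescence (485/520 nm) and CellTiter-Glo luminescence. Normalisation on each plate used 0.1 % DMSO (100) and a positive kill control (0).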

[2] = tested on: MDA-MB-453; assay: as above
Summary of the method: as §1

[3] = tested on: HCC1143; assay: as above
Summary of the method: as §1

[4] = tested on: CAL-85-1; assay: as above
Summary of the method: as §1

[5] = tested on: MCF-10A; assay: as above
Summary of the method: as §1

[6] = tested on: HCC1937; assay: as above
Summary of the method: as §1

[7] = tested on: MDA-MB-468; assay: as above
Summary of the method: as §1

[8] = tested on: BT-474; assay: as above
Summary of the method: as §1

[9] = tested on: BT-549; assay: as above
Summary of the method: as §1

[10] = tested on: HCC1599; assay: as above
Summary of the method: as §1

[11] = tested on: CAL-148; assay: as above
Summary of the method: as §1

[12] = tested on: HDQ-P1; assay: as above
Summary of the method: as §1

[13] = tested on: MDA-MB-436; assay: as above
Summary of the method: as §1

[14] = tested on: CAL-120; assay: as above
Summary of the method: as §1

[15] = tested on: SK-BR-3; assay: as above
Summary of the method: as §1

[16] = tested on: CAL-51; assay: as above
Summary of the method: as §1

[17] = tested on: MDA-MB-231; assay: as above
Summary of the method: as §1

[18] = tested on: Hs578T; assay: as above
Summary of the method: as §1

[19] = tested on: MFM-223; assay: as above
Summary of the method: as §1

[20] = tested on: DU-4475; assay: normalised viability (% of control), CellTiter-Blue; higher = more viable cells (about 100 = DMSO control)
Summary of the method: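 384-well plates were pre-loaded with compound in 5 µl medium before 20 µl of breast cancer cell suspension was seeded. Following 72 h incubation, 2.5 µl CellTiter-Blue reagent was added for 2 h at 37 °C. Fluorescence was read at 560/590 nm and plates were normalised to vehicle (100) and a positive kill control (0), checked by Z'-factor. Normalised viability is reported at a single listed concentration of the series.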

Row | Structure (SMILES) | normalised response [1] [%] | normalised response [2] [%] | normalised response [3] [%] | normalised response [4] [%] | normalised response [5] [%] | normalised response [6] [%] | normalised response [7] [%] | normalised response [8] [%] | normalised response [9] [%] | normalised response [10] [%] | normalised response [11] [%] | normalised response [12] [%] | normalised response [13] [%] | normalised response [14] [%] | normalised response [15] [%] | normalised response [16] [%] | normalised response [17] [%] | normalised response [18] [%] | normalised response [19] [%] | normalised viability [20]
1 | COc1ccc(-c2cc3c(C)nc(N)nc3n([C@H]3CC[C@H](OCCO)CC3)c2=O)cn1 (1000 nM) | 48 | 12.9 | 21.4 | 20.7 | 19.5 | 38.7 | 20.5 | 34.7 | 17.8 | 57.1 | 26.2 | 21.9 | 37.5 | 27 | 14.2 | 10 | 24.7 | 19.3 | 26.2 | 42.9%
2 | O=C(Nc1c[nH]nc1-c1nc2ccc(CN3CCOCC3)cc2[nH]1)NC1CC1 [AT9283] (1000 nM) | – | – | – | – | – | – | – | – | – | – | – | – | – | – | – | – | – | – | – | 10.3%
3 | COc1cc(CCc2cc(NC(=O)c3ccc(N4CC(C)NC(C)C4)cc3)n[nH]2)cc(OC)c1 (stereo unspecified) [AZD4547] (100 nM) | 96.9 | 90.4 | 93.1 | 96.2 | 86.2 | 93.4 | 92.2 | 102 | 88.4 | 107 | 104 | 104 | 99.2 | 80 | 89.3 | 91.4 | 106 | 88.1 | 53.1 | 84.3%
4 | CCC/C=C/C=C/C(=O)O[C@H]1/C(=C/C(=O)OC)C[C@H]2C[C@H]([C@@H](C)O)OC(=O)C[C@H](O)C[C@@H]3C[C@H](OC(C)=O)C(C)(C)[C@](O)(C[C@@H]4C/C(=C/C(=O)OC)C[C@H](/C=C/C(C)(C)[C@]1(O)O2)O4)O3 [Bryostatin 1] (10 nM) | 93.7 | 96.8 | 104 | 97.1 | 103 | 97.8 | 100 | 87.2 | 94.2 | 111 | 109 | 91.6 | 99.6 | 101 | 69.7 | 69.1 | 89.2 | 76.9 | 108 | 76.5%
5 | CO[C@@H](C(=O)N1Cc2[nH]nc(NC(=O)c3ccc(N4CCN(C)CC4)cc3)c2C1)c1ccccc1 [Danusertib] (1000 nM) | 83.7 | 156 | 75.1 | 90.8 | 46.2 | 89.3 | 33.6 | 75.6 | 51.4 | 105 | 72.2 | 82.5 | 80.9 | 75.7 | 91.2 | 59.9 | 74.7 | 81.6 | 43.2 | 46.3%
6 | Cc1nc(Nc2ncc(C(=O)Nc3c(C)cccc3Cl)s2)cc(N2CCN(CCO)CC2)n1 [Dasatinib] (100 nM) | 100 | 100 | 67.9 | 61.8 | 32.5 | 69.7 | 75.4 | 54.8 | 61.7 | 118 | 102 | 35.3 | 83.4 | 57.5 | 104 | 51.6 | 43.8 | 61.5 | 88.5 | 95.1% and 108%
7 | Cc1c(CN2CCN(C(=O)[C@H](C)O)CC2)sc2c(N3CCOCC3)nc(-c3cnc(N)nc3)nc12 [GDC-0980] (1000 nM) | 75.9 | 20.4 | 45.7 | 37.5 | 39.2 | 70.8 | 54.4 | 57 | 36.4 | 85.5 | 35.9 | 35.2 | 59.3 | 46.8 | 21.6 | 30.9 | 52 | 41.9 | 35.8 | 50.2%
8 | Nc1cccc2c1CN(C1CCC(=O)NC1=O)C2=O (stereo unspecified) [Lenalidomide] (1000 nM) | 102 | 87.1 | 101 | 108 | 103 | 100 | 111 | 97.7 | 97.6 | 116 | 98.2 | 101 | 99.9 | 93.8 | 101 | 99 | 105 | 104 | 97.6 | 110% and 88.9%
9 | C[C@]12O[C@H](C[C@]1(O)CO)n1c3ccccc3c3c4c(c5c6ccccc6n2c5c31)CNC4=O [Lestaurtinib] (100 nM) | 74.1 | 64.4 | 79.4 | 94.9 | 62.3 | 91 | 49.7 | 83.6 | 76.1 | 67.2 | 83.9 | 95.8 | 86 | 62.8 | 62.4 | 83.8 | 92.1 | 80.2 | 80.9 | 79.6%
10 | O=C1c2c(O)ccc(O)c2C(=O)c2c(NCCNCCO)ccc(NCCNCCO)c21 [Mitoxantrone] (100 nM) | 86.2 | 107 | 96 | 101 | 96.2 | 97.3 | 92.4 | 94.3 | 90.1 | 120 | 85.6 | 96.4 | 69.8 | 34.6 | 99.2 | 93.8 | 103 | 104 | 99.7 | 13%
11 | Nc1ccccc1NC(=O)c1ccc(CNc2nccc(-c3cccnc3)n2)cc1 [Mocetinostat] (1000 nM) | 76.3 | 62.8 | 91 | 87.9 | 140 | 67.8 | 72 | 80.4 | 66 | 81.2 | 77 | 80.8 | 78.2 | 83.8 | 78 | 62.9 | 77.7 | 74 | 77 | 39.2%
12 | COc1nc(N)nc2c1ncn2[C@@H]1O[C@H](CO)[C@@H](O)[C@@H]1O [Nelarabine] (1000 nM) | 91.3 | 87.3 | 89.3 | 99.1 | 82.8 | 96.2 | 92.1 | 83.7 | 94.1 | 113 | 85.6 | 96.7 | 92.1 | 98.7 | 80.7 | 88.7 | 93.9 | 98.7 | 88.3 | 103% and 110%
13 | Cc1ccc(Nc2nccc(N(C)c3ccc4c(C)n(C)nc4c3)n2)cc1S(N)(=O)=O [Pazopanib] (1000 nM) | 104 | 113 | 106 | 101 | 92.5 | 94.5 | 103 | 93.9 | 98.4 | 106 | 98.6 | 100 | 103 | 87.3 | 102 | 104 | 106 | 95.6 | 66.6 | 107%
14 | O=C(CCBr)N1CCN(C(=O)CCBr)CC1 [Pipobroman] (1000 nM) | 95.8 | 101 | 112 | 105 | 97 | 103 | 99.6 | 93.9 | 102 | 109 | 101 | 97.2 | 96.6 | 99.3 | 106 | 88.8 | 99.5 | 108 | 104 | 98.1%
15 | C[C@]12C=CC(=O)C=C1CC[C@@H]1[C@@H]2[C@@H](O)C[C@@]2(C)[C@H]1CC[C@]2(O)C(=O)CO [Prednisolone] (1000 nM) | 101 | 98.1 | 102 | 113 | 101 | 97.6 | 121 | 158 | 102 | 109 | 102 | 85.8 | 99.7 | 75.2 | 90.3 | 120 | 154 | 113 | 106 | 119%
16 | CNC(=O)c1cc(Oc2ccc(NC(=O)Nc3ccc(Cl)c(C(F)(F)F)c3)cc2)ccn1 [Sorafenib] (100 nM) | 105 | 90.5 | 105 | 107 | 122 | 104 | 117 | 101 | 106 | 98.7 | 110 | 103 | 109 | 111 | 104 | 83.9 | 104 | 90.6 | 104 | 94.2% and 117%
17 | CCN(CC)CCNC(=O)c1c(C)[nH]c(/C=C2\C(=O)Nc3ccc(F)cc32)c1C [Sunitinib] (100 nM) | 99.7 | 92 | 108 | 104 | 95.5 | 99.4 | 108 | 107 | 107 | 107 | 104 | 101 | 105 | 103 | 112 | 88.4 | 109 | 102 | 107 | 109% and 86.6%
18 | CC[C@@]1(O)C(=O)OCc2c1cc1n(c2=O)Cc2cc3c(CN(C)C)c(O)ccc3nc2-1 [Topotecan] (100 nM) | – | – | – | – | – | – | – | – | – | – | – | – | – | – | – | – | – | – | – | 61.2%
19 | CC[C@@]1(O)C(=O)OCc2c1cc1n(c2=O)Cc2cc3c(CN(C)C)c(O)ccc3nc2-1 [Topotecan] (1000 nM) | 38.4 | 87.6 | 55.1 | 50.1 | 79.2 | 79.3 | 11.1 | 81.8 | 51.5 | 24.1 | 24.3 | 86.9 | 42.6 | 75.6 | 47.6 | 48 | 81.6 | 99.1 | 91.4 | –
